Results on 15 compounds are retold here after patent publication US7514457B2, “Substituted aryloxymethyl bicyclicmethyl acetamide compounds” (Pfizer Inc., priority 2005, dated 2009).

SMILES strings stand for the structures.

Broadly, the IC50 is the concentration that gives 50% inhibition. Read a low IC50 as inhibition by little substance.

human VR1, sequence (Q8NER1 whole entry): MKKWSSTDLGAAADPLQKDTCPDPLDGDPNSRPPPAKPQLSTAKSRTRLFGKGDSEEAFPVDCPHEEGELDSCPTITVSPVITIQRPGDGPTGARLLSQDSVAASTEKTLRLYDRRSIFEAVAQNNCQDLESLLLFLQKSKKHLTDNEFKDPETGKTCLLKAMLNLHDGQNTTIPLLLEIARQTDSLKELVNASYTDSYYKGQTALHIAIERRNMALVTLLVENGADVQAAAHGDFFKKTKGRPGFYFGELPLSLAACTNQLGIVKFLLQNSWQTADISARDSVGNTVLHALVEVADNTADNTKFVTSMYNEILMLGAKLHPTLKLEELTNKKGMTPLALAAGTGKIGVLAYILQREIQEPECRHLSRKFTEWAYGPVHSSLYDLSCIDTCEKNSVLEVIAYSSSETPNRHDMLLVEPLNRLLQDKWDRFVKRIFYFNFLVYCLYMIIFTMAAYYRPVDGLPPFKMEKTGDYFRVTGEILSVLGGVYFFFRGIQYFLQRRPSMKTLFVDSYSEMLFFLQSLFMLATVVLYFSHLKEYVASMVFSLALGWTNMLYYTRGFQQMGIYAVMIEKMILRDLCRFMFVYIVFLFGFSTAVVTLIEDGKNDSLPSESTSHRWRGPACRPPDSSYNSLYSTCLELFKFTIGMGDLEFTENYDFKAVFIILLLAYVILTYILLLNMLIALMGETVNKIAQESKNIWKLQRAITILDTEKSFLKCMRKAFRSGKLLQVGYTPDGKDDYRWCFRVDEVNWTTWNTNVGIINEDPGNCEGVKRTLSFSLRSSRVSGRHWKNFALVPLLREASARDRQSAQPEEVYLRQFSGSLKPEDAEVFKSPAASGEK

For this test, the target named is human VR1 (Homo sapiens, UniProt Q8NER1). Briefly: Human VR1 antagonist assay (Ca2+ imaging). Format: cell-based. The following applies: Ca2+ imaging in human VR1 expressing cells; agonist stimulation (capsaicin 300 nM or acid pH 5.8) not given. The text has this:
VR1 antagonistic activity can be determined by the Ca^2+ imaging assay using human VR1 highly expressing cells. The cells that highly express human VR1 receptors are obtainable from several different conventional methods. The one standard method is cloning from human Dorsal Root Ganglion (DRG) or kidney according to the methods such as described in the journal article; Nature, 389, pp816-824, 1997. Alternatively VR1 receptors highly expressing human keratinocytes are also known and published in the journal article (Biochemical and Biophysical Research Communications, 291, pp124-129, 2002). […] Furthermore, the method to up regulate human VR1 gene, which is usually a silent gene or don't produce detectable level of VR1 receptors, is also available to obtain propriety cells. Such genetic modification method was described in detail; Nat. Biotechnol., 19, pp440-445, 2001.
The cells that express human VR1 receptors were maintained in culture flask at 37° C. in an environment containing 5% CO2 until use in the assay. The intracellular Ca^2+ imaging assay to determine VR1 antagonistic activities were done by following procedures.
The culture medium was removed from the flask and fura-2/AM fluorescent calcium indicator was added to the flask at a concentration of 5 μM in the medium. The flask was placed in CO2 incubator and incubated for 1 hour. Then the cells expressing the human VR1 receptors were detached from the flask follow by washing with phosphate buffer saline, PBS(−) and re-suspended in assay buffer. The 80 μl of aliquot of cell suspension (3.75×10^5 cells/ml) was added to the assay plate and the cells were spun down by centrifuge (950 rpm, 20° C., 3 minutes).
The capsaicin-induced changes in the intracellular calcium concentration were monitored using FDSS 6000 (Hamamatsu Photonics, Japan), a fluorometric imaging system. The cell suspension in Krebs-Ringer HEPES (KRH) buffer (115 mM NaCl, 5.4 mM KCl, 1 mM MgSO4, 1.8 mM CaCl2, 11 mM D-Glucose, 25 mM HEPES, 0.96 mM Na2HPO4, pH 7.3) were pre-incubated with varying concentrations of the test compounds or KRH buffer (buffer control) for 15 minutes at room temperature under the dark condition. Then capsaicin solution, which gives 300 nM in assay mixture, was automatically added to the assay plate by the FDSS 6000.
The Acid-induced changes in the intracellular calcium concentration were monitored using FDSS 6000 (Hamamatsu Photonics, Japan), a fluorometric imaging system. The cell suspension in resting buffer (HBSS supplemented with 10 mM HEPES, pH 7.4) were pre-incubated with varying concentrations of the test compounds or resting buffer (buffer control) for 15 minutes at room temperature under the dark condition. The cells were automatically added the stimulating solution (HBSS supplemented with MES, final assay buffer pH5.8) by the FDSS 6000.
The monitoring of the changes in the fluorescence signals (λex=340 nm/380 nm, λem=510-520 nm) was initiated at 1 minute prior to the addition of capsaicin solution or acidic buffer and continued for 5 minute.
The compounds of the examples were tested in the Human VR1 antagonist assay described above.
Consider `Oc1cc2c(cc1O)CN(C(=S)NCCc1ccc(Cl)cc1)CCC2` [Capsazepine, reference compound], for which the concentration for half-maximal inhibition (IC50) lay within 250 to 350 nM.

`CC(C)(C)c1ccc(OCC(=O)NCc2ccc3[nH]c(=O)[nH]c3c2)cc1` [Example 1, 2-(4-tert-Butylphenoxy)-N-[(2-oxo-2,3-dihydro-1H-benzimidazol-5-yl)methyl]acetamide] returned a concentration for half-maximal inhibition (IC50) of 421 nM.

For the compound `CC(C)(C)c1ccc(OCC(=O)NCc2ccc3[nH]c(=O)[nH]c3c2)cc1F` [Example 2, 2-(4-tert-butyl-3-fluorophenoxy)-N-[(2-oxo-2,3-dihydro-1H-benzimidazol-5-yl)methyl]acetamide], the 50% inhibitory concentration (IC50) came to 111 nM. Then `CC(C)(C)c1c(F)cc(OCC(=O)NCc2ccc3[nH]c(=O)[nH]c3c2)cc1F` [Example 3, 2-(4-tert-butyl-3,5-difluorophenoxy)-N-[(2-oxo-2,3-dihydro-1H-benzimidazol-5-yl)methyl]acetamide], with 97 nM. As to `CC(C)(C)c1ccc(OCC(=O)NCc2ccc3[nH]c(=O)[nH]c3c2)cc1Cl` [Example 4, 2-(4-tert-Butyl-3-chlorophenoxy)-N-[(2-oxo-2,3-dihydro-1H-benzimidazol-5-yl)methyl]acetamide], the IC50 came to 86 nM. As for `Cn1c(=O)[nH]c2cc(CNC(=O)COc3ccc(C(C)(C)C)cc3)ccc21` [Example 5, 2-(4-tert-butylphenoxy)-N-[(1-methyl-2-oxo-2,3-dihydro-1H-benzimidazol-5-yl)methyl]acetamide], the figure is 462 nM. Then `Cn1c(=O)[nH]c2cc(CNC(=O)COc3ccc(C(C)(C)C)c(Cl)c3)ccc21` [Example 7, 2-(4-tert-butyl-3-chlorophenoxy)-N-[(1-methyl-2-oxo-2,3-dihydro-1H-benzimidazol-5-yl)methyl]acetamide], with 175 nM; and `Cn1c(=O)[nH]c2ccc(CNC(=O)COc3ccc(C(C)(C)C)c(Cl)c3)cc21` [Example 8, 2-(3-chloro-4-tert-butylphenoxy)-N-[(3-methyl-2-oxo-2,3-dihydro-1H-benzimidazol-5-yl)methyl]acetamide], with 481 nM; and `CC(C)(C)c1ccc(OCC(=O)NCc2ccc3c(c2)CC(=O)N3)cc1Cl` [Example 9, 2-(3-chloro-4-tert-butylphenoxy)-N-[(2-oxo-2,3-dihydro-1H-indol-5-yl)methyl]acetamide], with 478 nM. `CC(C)(C)c1ccc(OCC(=O)NCc2ccc3[nH]c(=O)oc3c2)cc1Cl` [Example 10, 2-(3-chloro-4-tert-butylphenoxy)-N-[(2-oxo-2,3-dihydro-1,3-benzoxazol-6-yl)methyl]acetamide] displayed a half-inhibitory concentration (IC50) of 413 nM. For the compound `CC(C)(C)c1ccc(OCC(=O)NCc2ccc3[nH]cnc3c2)cc1` [Example 11, 2-(4-tert-butylphenoxy)-N-(1H-benzindazol-5-ylmethyl)acetamide], the IC50 was 837 nM. As for `CC(C)(C)c1ccc(OCC(=O)NCc2ccc3[nH]cnc3c2)cc1` [Example 12, N-(1H-benzimidazol-5-ylmethyl)-2-(4-tert-butylphenoxy)acetamide], the figure is 286 nM.

The compound `CC(NC(=O)COc1cc(F)c(C(C)(C)C)c(F)c1)c1ccc2[nH]c(=O)[nH]c2c1` (stereo not drawn) [Example 13, 2-(4-tert-Butyl-3,5-difluorophenoxy)-N-[1-(2-oxo-2,3-dihydro-1H-benzimidazol-5-yl)ethyl]acetamide] registered a half-maximal inhibitory concentration (IC50) of 50 nM. As for `C[C@@H](NC(=O)COc1cc(F)c(C(C)(C)C)c(F)c1)c1ccc2nn[nH]c2c1` [Example 14, N-[(1R)-1-(1H-1,2,3-Benzotriazol-6-yl)ethyl]-2-(4-tert-butyl-3,5-difluorophenoxy)acetamide], the figure is 31 nM; as for `CC(NC(=O)COc1cc(F)c(C(C)(C)C)c(F)c1)c1ccc2ncsc2c1` (stereo not drawn) [Example 15, N-[1-(1,3-benzothiazol-6-yl)ethyl]-2-(4-tert-butyl-3,5-difluorophenoxy)acetamide], 71 nM.
